Measured values from the NIST ThermoML archive (doi:10.1016/j.tca.2015.05.002).
± gives the expanded uncertainty stated by the source.

Legend:
[1] = DTA
[2] = Molar enthalpy of transition or fusion; conditions: DSC

Row | SMILES | Triple point temperature ([1]; Crystal 1) | Triple point temperature ([1]; Crystal 2) | Triple point temperature ([1]; Smectic liquid crystal) | Molar enthalpy of transition or fusion ([2]; Crystal 1) | Molar enthalpy of transition or fusion ([2]; Crystal 2) | Molar enthalpy of transition or fusion ([2]; Smectic liquid crystal)
1 | CCCCCC(=O)[O-].CCCCCC(=O)[O-].CCCCCC(=O)[O-].[La+3] [lanthanum(III) hexanoate] | 406.85 ± 10 K | 380.45 ± 10 K | 459.05 ± 0.5 K | 4.6 ± 0.54 kJ/mol | 6.22 ± 0.56 kJ/mol | 1.34 ± 0.52 kJ/mol
2 | CCCCC(=O)[O-].CCCCC(=O)[O-].CCCCC(=O)[O-].[La+3] [lanthanum(III) pentanoate] | 410.95 ± 10 K | 366.15 ± 10 K | 451.65 ± 10 K | 7.07 ± 0.57 kJ/mol |  | 3 ± 0.53 kJ/mol
